# According to the SangsterLogP compilation:
# Assay: method code SF-HPLC, from DOI: 10.1002/qsar.200860138
# Conditions: pH 3.0
row,SMILES,logD
1,COc1ccc(C(=O)c2ccn(CC(=O)O)c2)cc1,1.57
2,COc1ccc(C(=O)c2cc(C(=O)c3ccc(OC)cc3)n(CC(=O)O)c2)cc1,3.15
3,O=C(O)Cn1ccc(C(=O)c2ccc(C(F)(F)F)cc2)c1,2
4,O=C(O)Cn1ccc(C(=O)c2ccc3ccccc3c2)c1,2.27
5,COc1ccc(C(=O)c2cccn2CC(=O)O)cc1,1.65
6,O=C(O)Cn1ccc(C(=O)c2ccc([N+](=O)[O-])cc2)c1,0.93
7,O=C(O)Cn1ccc(C(=O)c2ccc(Cl)cc2)c1,1.95
8,O=C(O)Cn1cc(C(=O)c2ccccc2)cc1C(=O)c1ccccc1,2.12
9,O=C(O)Cc1ccc(C(=O)c2ccccc2)[nH]1,1.87
10,O=C(O)Cn1ccc(-c2nc3ccccc3s2)c1,2.22
11,Cc1ccc(C(=O)c2ccn(CC(=O)O)c2)cc1,1.27
12,O=C(O)Cn1cc(C(=O)c2ccccc2)c2ccccc21,2.57
